Experiments:
human recombinant GR = target: T1, human recombinant GR (Homo sapiens, UniProt P04150); assay: Human glucocorticoid receptor (GR) fluorescence polarisation (FP) binding assay; settings: human recombinant GR, fluorescence polarisation binding assay; read-out: GR binding
T1 construct: purchased PanVera P2812
T1 sequence (P04150 1-777): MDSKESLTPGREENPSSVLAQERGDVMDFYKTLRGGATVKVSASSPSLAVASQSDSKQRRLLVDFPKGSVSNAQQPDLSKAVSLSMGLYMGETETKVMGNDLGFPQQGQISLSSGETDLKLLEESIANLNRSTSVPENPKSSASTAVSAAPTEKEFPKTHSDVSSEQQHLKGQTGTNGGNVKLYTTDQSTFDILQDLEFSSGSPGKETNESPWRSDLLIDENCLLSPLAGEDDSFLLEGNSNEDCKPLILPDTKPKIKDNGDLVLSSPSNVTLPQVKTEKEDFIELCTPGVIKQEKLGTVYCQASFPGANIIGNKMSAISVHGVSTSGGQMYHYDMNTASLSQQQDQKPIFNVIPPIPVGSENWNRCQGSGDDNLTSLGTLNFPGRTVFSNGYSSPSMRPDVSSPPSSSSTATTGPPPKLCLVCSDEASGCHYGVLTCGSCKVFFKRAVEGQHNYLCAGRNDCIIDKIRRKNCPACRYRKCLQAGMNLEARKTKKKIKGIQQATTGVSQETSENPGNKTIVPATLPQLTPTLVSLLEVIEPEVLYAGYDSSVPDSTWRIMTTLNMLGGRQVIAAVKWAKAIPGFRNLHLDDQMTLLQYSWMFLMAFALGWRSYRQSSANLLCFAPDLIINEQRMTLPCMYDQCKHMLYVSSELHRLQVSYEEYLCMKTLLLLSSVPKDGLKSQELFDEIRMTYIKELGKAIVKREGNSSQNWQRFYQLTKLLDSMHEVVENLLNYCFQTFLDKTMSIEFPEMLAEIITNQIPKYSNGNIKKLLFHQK
Method in brief: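 Competition fluorescence polarisation: 0.5 nM GS Red labelled glucocorticoid and 1 nM recombinant human GR with 8-point half-log compound series, 1% DMSO, 4 h room temperature, potassium phosphate pH 7.4 buffer with molybdate, EDTA, DTT. Affinity derived from the drop in polarisation, normalised to blank wells.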

[1] = test system: induction of TAT by dexamethasone in HepG2 cells; assay: HepG2 tyrosine aminotransferase (TAT) assay; type: cell-based, human; settings: HepG2 cells, challenge of 100 nM dexamethasone; Ki from IC50 by Cheng and Prusoff equation

With `COc1ccc(S(=O)(=O)N2CCC3=Cc4c(cnn4-c4ccc(F)cc4)C[C@]3(C(=O)c3ccccn3)C2)cc1Cl` [Example 11C, (R)-(6-((3-chloro-4-methoxyphenyl)sulfonyl)-1-(4-fluorophenyl)-4,4a,5,6,7,8-hexahydro-1H-pyrazolo[3,4-g]isoquinolin-4a-yl)(pyridin-2-yl)methanone] the Ki (human recombinant GR) was under 0.0005 µM and the Ki [1] was 0.02 to 0.1 µM.
`CCCn1cc(S(=O)(=O)N2CCC3=Cc4c(cnn4-c4ccc(F)cc4)C[C@]3(C(=O)c3ccccn3)C2)cn1` [Example 11CA, (R)-(1-(4-fluorophenyl)-6-((1-propyl-1H-pyrazol-4-yl)sulfonyl)-4,4a,5,6,7,8-hexahydro-1H-pyrazolo[3,4-g]isoquinolin-4a-yl)(pyridin-2-yl) methanone] was tested, and the Ki (human recombinant GR) was under 0.0005 µM and the Ki [1] was under 0.02 µM.
`COCCn1cc(S(=O)(=O)N2CCC3=Cc4c(cnn4-c4ccc(F)cc4)C[C@]3(C(=O)c3ccccn3)C2)cn1` [Example 11CB, (R)-(1-(4-fluorophenyl)-6-((1-(2-methoxyethyl)-1H-pyrazol-4-yl)sulfonyl)-4,4a,5,6,7,8-hexahydro-1H-pyrazolo[3,4-g]isoquinolin-4a-yl)(pyridin-2-yl)methanone] showed a Ki (human recombinant GR) of under 0.0005 µM and a Ki [1] of under 0.02 µM.
`Cn1cc(C(=O)[C@]23Cc4cnn(-c5ccc(F)cc5)c4C=C2CCN(S(=O)(=O)c2ccc(Cl)c(Cl)c2)C3)cn1` [Example 11CC, (R)-(6-((3,4-dichlorophenyl)sulfonyl)-1-(4-fluorophenyl)-4,4a,5,6,7,8-hexahydro-1H-pyrazolo[3,4-g]isoquinolin-4a-yl)(1-methyl-1H-pyrazol-4-yl)methanone] was tested, and the Ki (human recombinant GR) was over 0.001 µM and the Ki [1] was 0.02 to 0.1 µM.
For `CC(C)n1cc(S(=O)(=O)N2CCC3=Cc4c(cnn4-c4ccc(F)cc4)C[C@]3(C(=O)c3ccccn3)C2)cn1` [Example 11CD, (R)-(1-(4-fluorophenyl)-6-((1-isopropyl-1H-pyrazol-4-yl)sulfonyl)-4,4a,5,6,7,8-hexahydro-1H-pyrazolo[3,4-g]isoquinolin-4a-yl)(pyridin-2-yl) methanone], the Ki (human recombinant GR) was under 0.0005 µM and the Ki [1] was under 0.02 µM.
Work on `Cn1ncc(S(=O)(=O)N2CCC3=Cc4c(cnn4-c4ccc(F)cc4)C[C@]3(C(=O)c3cc(C(F)(F)F)ccn3)C2)n1` [Example 11CE, (R)-(1-(4-fluorophenyl)-6-((2-methyl-2H-1,2,3-triazol-4-yl)sulfonyl)-4,4a,5,6,7,8-hexahydro-1H-pyrazolo[3,4-g]isoquinolin-4a-yl)(4-(trifluoromethyl)pyridin-2-yl)methanone] yielded a Ki (human recombinant GR) of under 0.0005 µM and a Ki [1] of under 0.02 µM.
For `Cn1nncc1S(=O)(=O)N1CCC2=Cc3c(cnn3-c3ccc(F)cc3)C[C@]2(C(=O)c2cc(C(F)(F)F)ccn2)C1` [Example 11CF, (R)-(1-(4-fluorophenyl)-6-((1-methyl-1H-1,2,3-triazol-5-yl)sulfonyl)-4,4a,5,6,7,8-hexahydro-1H-pyrazolo[3,4-g]isoquinolin-4a-yl)(4-(trifluoromethyl)pyridin-2-yl)methanone], the Ki (human recombinant GR) was over 0.001 µM and the Ki [1] was 0.02 to 0.1 µM.
Work on `Cn1cc(S(=O)(=O)N2CCC3=Cc4c(cnn4-c4ccc(F)cc4)C[C@]3(C(=O)c3cc(C(F)(F)F)ccn3)C2)nn1` [Example 11CG, (R)-(1-(4-fluorophenyl)-6-((1-methyl-1H-1,2,3-triazol-4-yl)sulfonyl)-4,4a,5,6,7,8-hexahydro-1H-pyrazolo[3,4-g]isoquinolin-4a-yl)(4-(trifluoromethyl)pyridin-2-yl)methanone] yielded a Ki (human recombinant GR) of under 0.0005 µM and a Ki [1] of under 0.02 µM.
Work on `CCn1ncc(S(=O)(=O)N2CCC3=Cc4c(cnn4-c4ccc(F)cc4)C[C@]3(C(=O)c3ccccn3)C2)n1` [Example 11CH, (R)-(6-((2-ethyl-2H-1,2,3-triazol-4-yl)sulfonyl)-1-(4-fluorophenyl)-4,4a,5,6,7,8-hexahydro-1H-pyrazolo[3,4-g]isoquinolin-4a-yl)(pyridin-2-yl)methanone] yielded a Ki (human recombinant GR) of under 0.0005 µM and a Ki [1] of under 0.02 µM.
With `CCn1nncc1S(=O)(=O)N1CCC2=Cc3c(cnn3-c3ccc(F)cc3)C[C@]2(C(=O)c2ccccn2)C1` [Example 11CI, (R)-(6-((1-ethyl-1H-1,2,3-triazol-5-yl)sulfonyl)-1-(4-fluorophenyl)-4,4a,5,6,7,8-hexahydro-1H-pyrazolo[3,4-g]isoquinolin-4a-yl)(pyridin-2-yl)methanone] the Ki (human recombinant GR) was over 0.001 µM and the Ki [1] was 0.02 to 0.1 µM.
`CCn1cc(S(=O)(=O)N2CCC3=Cc4c(cnn4-c4ccc(F)cc4)C[C@]3(C(=O)c3ccccn3)C2)nn1` [Example 11CJ, (R)-(6-((1-ethyl-1H-1,2,3-triazol-4-yl)sulfonyl)-1-(4-fluorophenyl)-4,4a,5,6,7,8-hexahydro-1H-pyrazolo[3,4-g]isoquinolin-4a-yl)(pyridin-2-yl)methanone] gave a Ki (human recombinant GR) of under 0.0005 µM and a Ki [1] of 0.02 to 0.1 µM.
With `CCn1ncc(S(=O)(=O)N2CCC3=Cc4c(cnn4-c4ccc(F)cc4)C[C@]3(C(=O)c3cc(C(F)(F)F)ccn3)C2)n1` [Example 11CK, (R)-(6-((2-ethyl-2H-1,2,3-triazol-4-yl)sulfonyl)-1-(4-fluorophenyl)-4,4a,5,6,7,8-hexahydro-1H-pyrazolo[3,4-g]isoquinolin-4a-yl)(4-(trifluoromethyl)pyridin-2-yl)methanone] the Ki (human recombinant GR) was under 0.0005 µM and the Ki [1] was under 0.02 µM.
Work on `CCn1nncc1S(=O)(=O)N1CCC2=Cc3c(cnn3-c3ccc(F)cc3)C[C@]2(C(=O)c2cc(C(F)(F)F)ccn2)C1` [Example 11CL, (R)-(6-((1-ethyl-1H-1,2,3-triazol-5-yl)sulfonyl)-1-(4-fluorophenyl)-4,4a,5,6,7,8-hexahydro-1H-pyrazolo[3,4-g]isoquinolin-4a-yl)(4-(trifluoromethyl)pyridin-2-yl)methanone] yielded a Ki (human recombinant GR) of over 0.001 µM and a Ki [1] of 0.02 to 0.1 µM.
`CCn1cc(S(=O)(=O)N2CCC3=Cc4c(cnn4-c4ccc(F)cc4)C[C@]3(C(=O)c3cc(C(F)(F)F)ccn3)C2)nn1` [Example 11CM, (R)-(6-((1-ethyl-1H-1,2,3-triazol-4-yl)sulfonyl)-1-(4-fluorophenyl)-4,4a,5,6,7,8-hexahydro-1H-pyrazolo[3,4-g]isoquinolin-4a-yl)(4-(trifluoromethyl)pyridin-2-yl)methanone] showed a Ki (human recombinant GR) of under 0.0005 µM and a Ki [1] of under 0.02 µM.
`CCCn1ncc(S(=O)(=O)N2CCC3=Cc4c(cnn4-c4ccc(F)cc4)C[C@]3(C(=O)c3ccccn3)C2)n1` [Example 11CN, (R)-(1-(4-fluorophenyl)-6-((2-propyl-2H-1,2,3-triazol-4-yl)sulfonyl)-4,4a,5,6,7,8-hexahydro-1H-pyrazolo[3,4-g]isoquinolin-4a-yl)(pyridin-2-yl)methanone] gave a Ki (human recombinant GR) of under 0.0005 µM and a Ki [1] of under 0.02 µM.
In the case of `CCCn1nncc1S(=O)(=O)N1CCC2=Cc3c(cnn3-c3ccc(F)cc3)C[C@]2(C(=O)c2ccccn2)C1` [Example 11CO, (R)-(1-(4-fluorophenyl)-6-((1-propyl-1H-1,2,3-triazol-5-yl)sulfonyl)-4,4a,5,6,7,8-hexahydro-1H-pyrazolo[3,4-g]isoquinolin-4a-yl)(pyridin-2-yl)methanone], the Ki (human recombinant GR) is reported as over 0.001 µM and the Ki [1] is reported as 0.02 to 0.1 µM.
`CCCn1cc(S(=O)(=O)N2CCC3=Cc4c(cnn4-c4ccc(F)cc4)C[C@]3(C(=O)c3ccccn3)C2)nn1` [Example 11CP, (R)-(1-(4-fluorophenyl)-6-((1-propyl-1H-1,2,3-triazol-4-yl)sulfonyl)-4,4a,5,6,7,8-hexahydro-1H-pyrazolo[3,4-g]isoquinolin-4a-yl)(pyridin-2-yl)methanone] showed a Ki (human recombinant GR) of under 0.0005 µM and a Ki [1] of under 0.02 µM.
`CCCn1ncc(S(=O)(=O)N2CCC3=Cc4c(cnn4-c4ccc(F)cc4)C[C@]3(C(=O)c3cscn3)C2)n1` [Example 11CQ, (R)-(1-(4-fluorophenyl)-6-((2-propyl-2H-1,2,3-triazol-4-yl)sulfonyl)-4,4a,5,6,7,8-hexahydro-1H-pyrazolo[3,4-g]isoquinolin-4a-yl)(thiazol-4-yl)methanone] was tested, and the Ki (human recombinant GR) was under 0.0005 µM and the Ki [1] was under 0.02 µM.
`CCCn1nncc1S(=O)(=O)N1CCC2=Cc3c(cnn3-c3ccc(F)cc3)C[C@]2(C(=O)c2cscn2)C1` [Example 11CR, (R)-(1-(4-fluorophenyl)-6-((1-propyl-1H-1,2,3-triazol-5-yl)sulfonyl)-4,4a,5,6,7,8-hexahydro-1H-pyrazolo[3,4-g]isoquinolin-4a-yl)(thiazol-4-yl)methanone] showed a Ki (human recombinant GR) of 0.0005 to 0.001 µM and a Ki [1] of 0.02 to 0.1 µM.
Work on `CCCn1cc(S(=O)(=O)N2CCC3=Cc4c(cnn4-c4ccc(F)cc4)C[C@]3(C(=O)c3cscn3)C2)nn1` [Example 11CS, (R)-(1-(4-fluorophenyl)-6-((1-propyl-1H-1,2,3-triazol-4-yl)sulfonyl)-4,4a,5,6,7,8-hexahydro-1H-pyrazolo[3,4-g]isoquinolin-4a-yl)(thiazol-4-yl)methanone] yielded a Ki (human recombinant GR) of under 0.0005 µM and a Ki [1] of under 0.02 µM.
